We go through 30 molecules from patent EP4177246A1, “FUSED OXAZEPINES AS INHIBITORS OF PEROXIREDOXINS” (Centro Atlántico del Medicamento, SA, priority 2021, dated 2023).

The subject of one assay is MCF-7. As to the kind of experiment: MTT cell viability assay, MCF-7 cells. It counts as cell-based. The conditions noted are these: Homo sapiens, MCF7, 48 h drug exposure. As for the experimental part:
(§1) Cell viability was assayed by measuring the mitochondrial reduction of the tetrazolium salt 3-(4,5-methyltiazol-2yl)-2,5diphenyl-tetrazolium bromide] (MTT) (Applichen; A2231,0010) [Mosmann T. J Immunol Methods. 1983 16;65(1-2):55-63 (ref. 36); Chuan Y-C et al 2010. Oncogene. 29 (10), 1531-1542 (ref. 37)]. Cells were seeded in 96-well plates in medium (either RPMI, DMEM or McCoys depending on the recommendations from the ATCC) supplemented with 10% FBS (Lonza Cat. N°: 14-502F), 2mM L-Glut (Lonza Cat. N°: BE17-605E) and 100U/ml PEST (Lonza Cat. N°: DE17-605E) at a cell density of 1000-5000 cells/well (96 well plate). Cells were seeded at a density according to their exponential growth phase (normally 1000 to 5000/well). The cells were cultured at 37 °C in the dark in air containing 5% CO2. After 24h either vehicle (0.05% DMSO) or drug were added to culture medium at the indicated concentrations (10 to 0,01microM). After another 48 h, MTT (0.3 mg/ml) was added to cells, followed by incubation for 2-4h at 37 °C in the dark. The medium was then removed and the precipitated formazan was solubilized by the addition of DMSO (200 µL).
(§2) The optical density was measured at 595 nm with the iMark Microplate Reader (BioRad, USA). Data was expressed as percent growth above the level in controls and the results in figures were plotted as means ± SEM of each test point from 3 replicates.
(§3) Statistical analysis. The concentration of drug that provokes 50% reduction of cell viability (IC50) was determined by using non-linear regression analysis and data were fitted to a log concentration vs normalized response curve in GraphPad software v5 (San Diego, CA).

The next assay concerns K562. As to the kind of experiment: MTT cell viability assay, K562 cells. It counts as cell-based. As to conditions: Homo sapiens, 48 h drug exposure. As for the experimental part:
K562 [American Type Culture Collection (ATCC) reference number CCL-243]. This a human cancer cell line derived from the bone marrow of a person with CML.
as §1, §2, §3

A further assay deals with MDA-MB-231. As to the kind of experiment: MTT cell viability assay, MDA-MB-231 cells. The format is cell-based, human. The conditions noted are these: Homo sapiens, 48 h drug exposure. The procedure: MDA-MB-231 [American Type Culture Collection (ATCC) reference number HTB-26]. This a human breast cancer cell line derived from a metastatic site from a person.
as §1, §2, §3

The subject of the next assay is DU-145. As to the kind of experiment: MTT cell viability assay, DU-145 cells. The format is cell-based. As to conditions: Homo sapiens, 48 h drug exposure. The procedure:
DU-145 [American Type Culture Collection (ATCC) reference number HTB-81]. This a human prostate cancer cell line derived from a metastatic site (brain) of a person.
as §1, §2, §3

The subject of a further assay is PANC-1. Briefly: MTT cell viability assay, PANC-1 cells. The format is cell-based. The conditions noted are these: Homo sapiens, 48 h drug exposure. As for the experimental part:
PANC-1 [American Type Culture Collection (ATCC) reference number CRL-1469]. This a human cancer cell line derived from the pancreas of a person.
as §1, §2, §3

For another assay, the system named is HEL 92.1.7. As to the kind of experiment: MTT cell viability assay, HEL cells. It counts as cell-based. As to conditions: Homo sapiens, 48 h drug exposure. The procedure: HEL 92.1.7 [American Type Culture Collection (ATCC) reference number TIB-180]. This a human cancer cell line derived from the bone marrow of a person with erythroleukemia, which is a form of AML.
as §1, §2, §3

As for `COc1cccc2c1OC1=C(C(=O)c3c(O)ccc(O)c3C1=O)N(c1ccc(C(N)=O)cc1)C2` [Compound 56], the IC50 in the assay with MCF-7 worked out at 3.04 µM; with K562 it was 0.19 µM; in the assay with MDA-MB-231, 0.4 µM; with DU-145, 7.22 µM.
For `NC(=O)c1ccc(N2Cc3cc(F)ccc3OC3=C2C(=O)c2c(O)ccc(O)c2C3=O)cc1` [Compound 55], the IC50 is 3.45 µM with MCF-7, 0.33 µM with K562, 0.89 µM in the assay with PANC-1 and 3.35 µM in the assay with MDA-MB-231.
Regarding `CN(CCO)c1ccc(N2Cc3ccccc3OC3=C2C(=O)c2c(O)ccc(O)c2C3=O)cn1` [Compound 61], the IC50 amounted to 0.1 µM in the assay with HEL 92.1.7, 0.16 µM in the assay with K562, 0.41 µM with MDA-MB-231 and 0.92 µM in the assay with DU-145.
`CN(C)CCNc1ccc(N2Cc3ccccc3OC3=C2C(=O)c2cccc(O)c2C3=O)cn1` [Compound 105]: the half-maximal inhibitory concentration (IC50) in the assay on MCF-7 worked out at 1.99 µM; in the assay with PANC-1 it was 0.69 µM; with MDA-MB-231, 0.71 µM; in the assay with DU-145, 1.51 µM.
`O=C1C2=C(C(=O)c3c(O)ccc(O)c31)N(c1ccccc1)Cc1ccccc1O2` [Compound 45, 7,10-dihydroxy-12-phenyl-12,13-dihydrobenzo[f]naphtho[2,3-b][1,4]oxazepine-6,11-dione]: the IC50 was determined as 0.09 µM in the assay on HEL 92.1.7, 0.09 µM in the assay with K562, 0.13 µM in the assay with MDA-MB-231 and 0.57 µM with DU-145.
As for `COc1cccc2c1OC1=C(C(=O)c3c(O)ccc(O)c3C1=O)N(c1ccc(C#N)cc1)C2` [Compound 26], the IC50 with MCF-7 was 3.17 µM; in the assay with K562 it was 0.13 µM; with PANC-1, 0.47 µM; with MDA-MB-231, 0.39 µM; in the assay with DU-145, 7.35 µM.
Turning to `COC(=O)CNC(=O)c1ccc(N2Cc3ccccc3OC3=C2C(=O)c2c(O)ccc(O)c2C3=O)cc1` [Compound 102, methyl (4-(7,10-dihydroxy-6,11-dioxo-6,11-dihydrobenzo[f]naphtho[2,3-b][1,4]oxazepin-12(13H)-yl)benzoyl)glycinate], the 50% inhibitory concentration (IC50) with K562 is 0.42 µM; with MDA-MB-231, 0.17 µM; in the assay on DU-145, 1 µM.
For `CN1CCN(c2ccc(N3Cc4ccccc4OC4=C3C(=O)c3cccc(O)c3C4=O)cn2)CC1` [Compound 106], the values for the IC50 in the assay on PANC-1 and in the assay on MDA-MB-231 were 0.71 µM and 0.74 µM, respectively.
Take `CN(C)c1ccc(N2Cc3ccccc3OC3=C2C(=O)c2ccccc2C3=O)cn1` [Compound 98]: the IC50 turned out to be 3.54 µM with MCF-7, 2.94 µM with PANC-1, 2.17 µM with MDA-MB-231 and 4.7 µM in the assay on DU-145.
In the case of `NC(=O)c1ccc(N2Cc3ccccc3OC3=C2C(=O)c2ccccc2C3=O)cc1` [Compound 17, 4-(6,11-dioxo-6,11-dihydrobenzo[f]naphtho[2,3-b][1,4]oxazepin-12(13H)-yl)benzamide], the half-maximal inhibitory concentration (IC50) in the assay on MCF-7 came to 5.91 µM; with K562, 0.65 µM; in the assay with DU-145, 5.77 µM.
Consider `NS(=O)(=O)c1ccc(N2Cc3ccccc3OC3=C2C(=O)c2ccccc2C3=O)cc1` [Compound 19], for which the 50% inhibitory concentration (IC50) in the assay on MCF-7 was 7.9 µM; in the assay with HEL 92.1.7 it was 1 µM; with K562 it was 1.39 µM; with DU-145 it was 8.36 µM.
In the case of `N#Cc1cccc(N2Cc3cc(Cl)ccc3OC3=C2C(=O)c2c(O)ccc(O)c2C3=O)c1` [Compound 43], the IC50 came out at 1.3 µM in the assay with MCF-7, 0.76 µM in the assay with K562, 0.74 µM in the assay with PANC-1 and 0.81 µM in the assay on MDA-MB-231.
With `CN1CCN(c2ccc(N3Cc4ccccc4OC4=C3C(=O)c3ccccc3C4=O)cn2)CC1` [Compound 100, 12-(6-(4-methylpiperazin-1-yl)pyridin-3-yl)-12,13-dihydrobenzo[f]naphtho [2,3-b][1,4]oxazepine-6,11-dione], the half-maximal inhibitory concentration (IC50) in the assay with MCF-7 amounted to 1.95 µM; in the assay with PANC-1, 1.8 µM; in the assay on MDA-MB-231, 1.63 µM; in the assay with DU-145, 3.4 µM.
Taken in the same sequence, the figures for `CN(C)c1ccc(N2Cc3ccccc3OC3=C2C(=O)c2cccc(O)c2C3=O)cn1` [Compound 103] were 1.74 µM, 1.41 µM, 1.4 µM and 1.8 µM.
With `O=C1C2=C(C(=O)c3ccccc31)N(c1ccccc1)Cc1ccccc1O2` [Compound 1, 12-phenyl-12,13-dihydrobenzo[f]naphtho[2,3-b][1,4]oxazepine-6,11-dione], the values for the IC50 in the assay with HEL 92.1.7, in the assay with K562 and with MDA-MB-231 were 0.45 µM, 0.98 µM and 1.59 µM, respectively.
As to `O=C1C2=C(Oc3ccccc3CN2c2ccc(N3CCOCC3)nc2)C(=O)c2c(O)cccc21` [Compound 104], the concentration for half-maximal inhibition (IC50) in the assay with MCF-7 was found to be 1.82 µM; in the assay with PANC-1 it was 1.23 µM; in the assay on MDA-MB-231 it was 1.02 µM; with DU-145 it was 1.6 µM.
As to `NC(=O)c1cccc(N2Cc3cc(Cl)ccc3OC3=C2C(=O)c2c(O)ccc(O)c2C3=O)c1` [Compound 44], the IC50 came to 0.97 µM in the assay on MCF-7, 0.06 µM in the assay with K562, 0.32 µM in the assay on PANC-1 and 0.73 µM in the assay with MDA-MB-231.
Consider `O=C1C2=C(Oc3ccccc3CN2c2cccnc2)C(=O)c2c(O)cccc21` [Compound 76], for which the IC50 with MCF-7 stood at 2 µM; in the assay with PANC-1, 1.86 µM; in the assay on MDA-MB-231, 1.8 µM; with DU-145, 2.3 µM.
The like results for `O=C1C2=C(C(=O)c3ccccc31)N(c1ccc(N3CCOCC3)nc1)Cc1ccccc1O2` [Compound 99] were, in that order, 2.28 µM, 2.61 µM, 2.09 µM and 4.3 µM.
The like results for `N#Cc1ccc(N2Cc3ccccc3OC3=C2C(=O)c2cccc(O)c2C3=O)cc1` [Compound 75] were, in that order, 2.36 µM, 5.49 µM, 2.7 µM and 3.89 µM.
`COc1ccc(O)c2c1C(=O)C1=C(Oc3ccccc3CN1c1ccccc1)C2=O` [Compound 84]: the IC50 is 3.98 µM in the assay on MCF-7, 3.71 µM with HEL 92.1.7 and 1.18 µM in the assay with MDA-MB-231.
Consider `COc1ccc(OC)c2c1C(=O)C1=C(C2=O)N(c2cccnc2)Cc2ccccc2O1` [Compound 85, 7,10-dimethoxy-12-(pyridin-3-yl)-12,13-dihydrobenzo[f]naphtho[2,3-b][1,4]oxazepine-6,11-dione], for which the concentration for half-maximal inhibition (IC50) in the assay with MCF-7 was 2.57 µM; with HEL 92.1.7 it was 0.33 µM; in the assay on K562 it was 0.38 µM; in the assay on PANC-1, 1.78 µM; with MDA-MB-231 it was 1.03 µM.
For the molecule `CC(=O)Oc1ccc(OC(C)=O)c2c1C(=O)C1=C(C2=O)N(c2cccnc2)Cc2ccccc2O1` [Compound 60, 6,11-dioxo-12-(pyridin-3-yl)-6,11,12,13-tetrahydrobenzo[f]naphtho[2,3-b][1,4] oxazepine-7,10-diyl diacetate], the half-maximal inhibitory concentration (IC50) with HEL 92.1.7 amounted to 0.08 µM; with MDA-MB-231, 0.41 µM.
As to `COc1ccc(OC)c2c1C(=O)C1=C(C2=O)N(c2ccc(N3CCOCC3)nc2)Cc2ccccc2O1` [Compound 86], the results for the IC50 with HEL 92.1.7, with PANC-1 and in the assay with MDA-MB-231 were 0.59 µM, 3.89 µM and 1.28 µM, respectively.
Consider `COc1ccc(O)c2c1C(=O)C1=C(C2=O)N(c2cccc(C#N)c2)Cc2ccccc2O1` [Compound 66], for which the IC50 is 2.34 µM in the assay on MCF-7, 0.05 µM in the assay with HEL 92.1.7 and 1.21 µM in the assay with MDA-MB-231.
For `COc1ccc(N2Cc3ccccc3OC3=C2C(=O)c2c(O)ccc(O)c2C3=O)cc1` [Compound 46], the results for the half-maximal inhibitory concentration (IC50) in the assay with HEL 92.1.7 and in the assay with MDA-MB-231 were 0.11 µM and 0.25 µM, respectively.
The like results for `COC(=O)c1ccc(N2Cc3ccccc3OC3=C2C(=O)c2c(O)ccc(O)c2C3=O)cc1` [Compound 48] were, in that order, 0.1 µM and 0.27 µM.
As to `CN(C)CCNc1ccc(N2Cc3ccccc3OC3=C2C(=O)c2ccccc2C3=O)cn1` [Compound 73], the 50% inhibitory concentration (IC50) in the assay with MCF-7 was found to be 2.27 µM; in the assay on PANC-1 it was 1.7 µM; with MDA-MB-231, 1.64 µM; in the assay on DU-145, 2.7 µM.
As for `CN(CCO)c1ccc(N2Cc3ccccc3OC3=C2C(=O)c2ccccc2C3=O)cn1` [Compound 49], the IC50 was 1.22 µM with HEL 92.1.7, 3.43 µM with PANC-1 and 2.63 µM in the assay with MDA-MB-231.
In the case of `CCOC(=O)c1ccc2c(c1)CN(c1ccccc1)C1=C(O2)C(=O)c2c(O)ccc(O)c2C1=O` [Compound 64], the figures for the half-maximal inhibitory concentration (IC50) with HEL 92.1.7 and in the assay with K562 were 5.89 µM and 1.3 µM, respectively.
